pKd: −log10 of the molar value.
Molecular target: Folate binding protein (FBP, bovine milk) (Bos taurus, UniProt P02702)
Test: SPR binding to immobilized folate binding protein
Settings: read-out: equilibrium dissociation constant KD, FBP chip, free MTX
Procedure: SPR analysis was performed in a Biacore® X instrument (Pharmacia Biosensor AB, Uppsala, Sweden).
Folate binding protein (FBP)-presenting chip was prepared at the surface protein density of 11 ng/mm^2 (≈2-3 FBP per 10 nm^2) following an EDC-based amide coupling method as described previously (see, e.g., Hong, S.; et al., Chem. Biol. 2007, 14, 107-15; Plantinga, A.; et al., ACS Med. Chem. Lett. 2011, 2, 363-67; each herein incorporated by reference in their entireties).
In an approach to determine the equilibrium dissociation constants (KD) for G5-MTXn on a quantitative basis, the SPR data was analyzed by using the non-linear regression method as established for SPR analysis (see, e.g., Ober, R. J.; et al., Anal. Biochem. 2003, 312, 57-65; herein incorporated by reference in its entirety). This analytical method enabled the SPR data to be fit according to a linear combination of exponential functions, and to extract the estimates for their kinetic rate constants (kon, koff) and KD (FIG. 7).

Chain of Folate binding protein (FBP, bovine milk) (P02702 20-234): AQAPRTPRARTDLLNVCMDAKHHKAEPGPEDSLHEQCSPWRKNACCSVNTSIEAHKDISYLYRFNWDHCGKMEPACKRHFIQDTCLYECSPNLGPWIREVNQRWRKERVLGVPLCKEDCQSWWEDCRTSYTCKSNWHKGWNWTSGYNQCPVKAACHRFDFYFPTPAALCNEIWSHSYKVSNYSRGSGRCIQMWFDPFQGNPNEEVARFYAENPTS

pKd: 4.62
Compound: CN(Cc1cnc2nc(N)nc(N)c2n1)c1ccc(C(=O)N[C@@H](CCC(=O)O)C(=O)O)cc1 [MTX, methotrexate]

Reference: patent US9402911B2, “Multifunctional small molecules” (The Regents of the University of Michigan, priority 2011, dated 2016)
